{"source": "ChEMBL document CHEMBL2010689", "about": "(J Med Chem, 2012)", "key": {"[1]": {"biological_target": "Vascular endothelial growth factor receptor 2 (Homo sapiens, UniProt P35968)", "sequence (P35968 whole entry)": "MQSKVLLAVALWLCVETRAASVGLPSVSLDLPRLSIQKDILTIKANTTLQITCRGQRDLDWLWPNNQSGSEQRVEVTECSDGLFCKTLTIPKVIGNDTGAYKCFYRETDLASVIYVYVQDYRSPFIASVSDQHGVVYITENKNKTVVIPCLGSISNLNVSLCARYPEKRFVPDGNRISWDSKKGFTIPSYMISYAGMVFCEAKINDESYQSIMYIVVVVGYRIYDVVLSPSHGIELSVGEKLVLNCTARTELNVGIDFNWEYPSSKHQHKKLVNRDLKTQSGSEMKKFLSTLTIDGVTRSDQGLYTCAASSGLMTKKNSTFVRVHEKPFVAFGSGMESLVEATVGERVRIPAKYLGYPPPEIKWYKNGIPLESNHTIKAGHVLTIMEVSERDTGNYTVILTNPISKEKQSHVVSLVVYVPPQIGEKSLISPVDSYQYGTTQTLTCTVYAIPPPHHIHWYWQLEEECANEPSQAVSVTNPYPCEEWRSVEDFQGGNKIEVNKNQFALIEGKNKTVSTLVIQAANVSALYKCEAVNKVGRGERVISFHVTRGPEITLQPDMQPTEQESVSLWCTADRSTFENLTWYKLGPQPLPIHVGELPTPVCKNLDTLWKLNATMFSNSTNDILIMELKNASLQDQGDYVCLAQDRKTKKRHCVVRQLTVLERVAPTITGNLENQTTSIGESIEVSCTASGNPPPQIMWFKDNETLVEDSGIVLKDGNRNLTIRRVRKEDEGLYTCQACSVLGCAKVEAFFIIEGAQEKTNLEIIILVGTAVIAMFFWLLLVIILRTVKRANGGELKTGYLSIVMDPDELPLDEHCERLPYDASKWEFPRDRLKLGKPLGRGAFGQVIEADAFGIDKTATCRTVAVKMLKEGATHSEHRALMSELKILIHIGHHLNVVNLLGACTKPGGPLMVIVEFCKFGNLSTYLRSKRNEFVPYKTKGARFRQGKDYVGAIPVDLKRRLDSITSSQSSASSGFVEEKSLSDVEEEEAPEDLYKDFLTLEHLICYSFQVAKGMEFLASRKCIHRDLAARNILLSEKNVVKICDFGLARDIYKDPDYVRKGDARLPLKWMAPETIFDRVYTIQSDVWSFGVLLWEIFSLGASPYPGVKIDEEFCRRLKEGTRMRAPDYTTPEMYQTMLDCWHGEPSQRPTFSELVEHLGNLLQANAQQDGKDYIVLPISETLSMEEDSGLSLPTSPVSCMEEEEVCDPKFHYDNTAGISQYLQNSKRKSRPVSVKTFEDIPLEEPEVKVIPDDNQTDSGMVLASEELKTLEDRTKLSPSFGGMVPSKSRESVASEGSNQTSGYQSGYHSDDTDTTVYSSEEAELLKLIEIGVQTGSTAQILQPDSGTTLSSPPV", "description": "Inhibition of human recombinant VEGF-R2 expressed in baculovirus expression system using GST-PLCgamma as substrate after 1 hr by time-resolved fluorescence analysis"}, "[2]": {"biological_target": "Angiopoietin-1 receptor (Homo sapiens, UniProt Q02763)", "sequence (Q02763 whole entry)": "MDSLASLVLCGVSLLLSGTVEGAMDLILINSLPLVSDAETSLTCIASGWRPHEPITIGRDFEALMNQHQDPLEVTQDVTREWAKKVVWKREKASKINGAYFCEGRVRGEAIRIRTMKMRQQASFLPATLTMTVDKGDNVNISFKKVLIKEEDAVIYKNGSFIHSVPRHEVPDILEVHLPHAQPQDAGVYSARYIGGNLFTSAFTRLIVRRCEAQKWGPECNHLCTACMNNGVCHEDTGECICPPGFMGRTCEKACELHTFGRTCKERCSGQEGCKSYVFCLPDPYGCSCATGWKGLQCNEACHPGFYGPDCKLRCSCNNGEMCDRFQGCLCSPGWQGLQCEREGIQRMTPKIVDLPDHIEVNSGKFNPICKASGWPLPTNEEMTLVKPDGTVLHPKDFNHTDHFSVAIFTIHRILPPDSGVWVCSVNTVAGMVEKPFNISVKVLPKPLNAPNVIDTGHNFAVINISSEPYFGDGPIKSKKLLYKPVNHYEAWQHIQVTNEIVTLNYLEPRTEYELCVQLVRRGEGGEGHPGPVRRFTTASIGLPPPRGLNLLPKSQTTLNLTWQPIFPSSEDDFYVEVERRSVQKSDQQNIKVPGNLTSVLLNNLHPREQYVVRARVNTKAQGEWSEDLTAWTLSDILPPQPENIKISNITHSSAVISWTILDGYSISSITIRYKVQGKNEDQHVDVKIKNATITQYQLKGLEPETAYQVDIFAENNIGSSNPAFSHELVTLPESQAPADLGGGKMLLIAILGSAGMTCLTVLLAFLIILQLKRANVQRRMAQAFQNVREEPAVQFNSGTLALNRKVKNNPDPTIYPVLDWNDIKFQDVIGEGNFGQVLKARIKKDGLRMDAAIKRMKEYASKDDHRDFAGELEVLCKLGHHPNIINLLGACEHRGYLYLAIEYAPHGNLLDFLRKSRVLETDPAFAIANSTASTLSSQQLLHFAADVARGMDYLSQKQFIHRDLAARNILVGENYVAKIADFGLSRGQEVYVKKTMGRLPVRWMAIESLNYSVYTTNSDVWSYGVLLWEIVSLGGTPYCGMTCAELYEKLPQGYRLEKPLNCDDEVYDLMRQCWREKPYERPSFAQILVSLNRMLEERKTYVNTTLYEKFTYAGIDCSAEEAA", "description": "Inhibition of human recombinant Tie2 expressed in baculovirus expression system using GST-PLCgamma as substrate after 1 hr by time-resolved fluorescence analysis"}, "[3]": {"experiment": "Metabolic stability in monkey liver S9 fraction assessed as compound remaining after 2 hrs", "type": "ADME, subcellular, Macaca mulatta", "conditions": "rhesus monkey, read-out: Stability"}, "[4]": {"experiment": "Metabolic stability in dog liver S9 fraction assessed as compound remaining after 2 hrs", "type": "ADME, subcellular, Canis lupus familiaris", "conditions": "read-out: Stability"}, "[5]": {"experiment": "Metabolic stability in human liver S9 fraction assessed as compound remaining after 2 hrs", "type": "ADME, subcellular", "conditions": "read-out: Stability"}, "[6]": {"experiment": "Oral bioavailability in Sprague-Dawley rat at 5 mg/kg", "type": "ADME, organism-based", "conditions": "in vivo"}, "[7]": {"experiment": "Metabolic stability in rat liver S9 fraction assessed as compound remaining after 2 hrs", "type": "ADME, subcellular", "conditions": "read-out: Stability"}, "[8]": {"experiment": "Metabolic stability in mouse liver S9 fraction assessed as compound remaining after 2 hrs", "type": "ADME, subcellular", "conditions": "read-out: Stability"}}, "data": [{"compound": "Cc1cc(C)nc(Nc2ccc3c(c2)c2c4c(c5c(c2n3CC(C)C)CCc2nn(C)cc2-5)C(=O)NC4)n1", "values": [{"measurement": "IC50", "setting": "[1]", "result": "> 3", "unit": "µM"}, {"measurement": "IC50", "setting": "[2]", "result": "> 3", "unit": "µM"}]}, {"compound": "CCCn1c2ccc(Nc3ncccn3)cc2c2c3c(c4c(c21)CCc1nn(C)cc1-4)C(=O)NC3", "values": [{"measurement": "remaining at 2 h", "setting": "[3]", "result": 44, "unit": "%"}, {"measurement": "remaining at 2 h", "setting": "[4]", "result": 65, "unit": "%"}, {"measurement": "remaining at 2 h", "setting": "[5]", "result": 54, "unit": "%"}, {"measurement": "bioavailability", "setting": "[6]", "result": 22, "unit": "%"}, {"measurement": "remaining at 2 h", "setting": "[7]", "result": 65, "unit": "%"}, {"measurement": "remaining at 2 h", "setting": "[8]", "result": 65, "unit": "%"}]}, {"compound": "CC(C)OCc1ccc2c(c1)c1c3c(c4c(c1n2CCCO)Cc1ccccc1-4)C(=O)NC3", "note": "[CEP-5214]", "values": [{"measurement": "IC50", "setting": "[2]", "result": "> 10", "unit": "µM"}]}, {"compound": "COc1ccnc(Nc2ccc3c(c2)c2c4c(c5c(c2n3CC(C)C)CCc2nn(C)cc2-5)C(=O)NC4)n1", "values": [{"measurement": "IC50", "setting": "[2]", "result": "> 1", "unit": "µM"}]}, {"compound": "CC(C)Cn1c2ccc(Nc3nccc(C(F)(F)F)n3)cc2c2c3c(c4c(c21)CCc1nn(C)cc1-4)C(=O)NC3", "values": [{"measurement": "IC50", "setting": "[2]", "result": "> 3", "unit": "µM"}]}, {"compound": "CC(C)n1c2ccc(Nc3ccncc3)cc2c2c3c(c4c(c21)CCc1nn(C)cc1-4)C(=O)NC3", "values": [{"measurement": "IC50", "setting": "[2]", "result": "> 3", "unit": "µM"}]}]}
